This note sets out measurements from paper PMC7814697 (The Journal of organic chemistry, 2019).

Converted amounts (≈) assume the structure as drawn.

Experiment [1] relates to Bacillus subtilis ATCC 6051. The experiment can be described thus: Minimum inhibitory concentration. The conditions noted are these: ATCC6051, read-out: MIC, Bacillus subtilis ATCC 6051. It counts as cell-based.
Experiment [2] relates to Gram-positive bacteria (S. aureus, S. epidermidis, and B. subtilis). Put plainly: MIC assays summarised across the Gram-positive bacteria. It counts as cell-based. The settings on record: MIC without versus with 0.002% polysorbate 80.

As usually defined, the MIC is the least concentration at which growth counts as inhibited. Turning to `CN[C@H](CC(C)C)C(=O)N[C@H]1C(=O)N[C@@H](CC(N)=O)C(=O)N[C@H]2C(=O)N[C@H]3C(=O)N[C@H](C(=O)N[C@H](C(=O)O)c4cc(O)cc(O)c4-c4cc3ccc4O)[C@H](O)c3ccc(c(Cl)c3)Oc3cc2cc(c3O[C@@H]2O[C@H](CO)[C@@H](O)[C@H](O)[C@H]2O[C@H]2C[C@](C)(N)[C@H](O)[C@H](C)O2)Oc2ccc(cc2Cl)[C@H]1O` [vancomycin], the MIC in experiment [1] is 0.5 µg/mL (≈ 0.345 µM). Further, the “decrease in the MIC with 0.002% polysorbate 80” value in experiment [2] was “modest two-fold decrease”.
